Data as given in article PMC9797307, “Measurement of Pharmacokinetics and Tissue Distribution of Four Compounds from Nauclea officinalis in Rat Plasma and Tissues through HPLC-MS/MS” (Journal of Analytical Methods in Chemistry, 2022).

Assay: Pharmacokinetic study in rat plasma after oral administration of Nauclea officinalis extracts (HPLC-MS/MS)
Assay type: in vivo, Male Sprague–Dawley (SD) rats
Settings: oral Nauclea officinalis extracts 2 g/kg, noncompartment model, mean ± SD; for Cmax / MRT last / Vd/F / half-life: male, Sprague-Dawley; for Cmax: n = 6, read-out: C max (maximum plasma concentration); for MRT last: n = 6, read-out: MRT (0 − t); for Vd/F: n = 6, read-out: Vz/F (apparent distribution volume); for half-life: n = 6, read-out: t1/2 (elimination half-life) (converted)
Protocol: Chromatographic analysis was performed on the LC-20ADXR System (Shimadzu, Japan). The Phenomenex Kinete EVO C18 100 Å (50 mm × 2.1 mm, 5 μm) column was used as the analytical column maintained at 40°C with (A) 0.1% formic acid aqueous solution and (B) acetonitrile as the mobile phase. […] The flow rate was 0.8 mL/min, and the injection volume was 5 μL.
Mass spectrometric detection was performed on an AB-SCIEX API 4000 mass spectrometer (AB SCIEX, Singapore) with ESI in negative ion multiple reaction monitoring (MRM) mode. The optimized instrument parameters were as follows: nebulizer gas: 50 psi, heated by N2 gas: 55 psi, ion spray voltage: −4500 V and temperature: 550°C; nebulizer, blowback gas, and collision gas were nitrogen; declustering potential (DP), collision energy (CE), and collision cell exit potential (CXP) of the four analytes and chloramphenicol (IS) are shown in Table 1.
Six male SD rats were tested in pharmacokinetics studies. […] The blood samples (approximately 0.5 mL) were collected via the venous plexus of the eye socket at 0.083, 0.25, 0.5, 1, 2, 4, 6, 8, […], 12, and 24 h under anesthesia. Next, each sample was immediately centrifuged at 4000 rpm for 10 min to acquire the plasma. The plasma was transferred to new tubes and stored at −80°C until further use. The pharmacokinetics parameters of the four compounds in rat plasma were calculated by the noncompartment model using Drug and Statistics (DAS 3.3.0) software (Beijing, China).
Pharmacokinetic parameters of four compounds were calculated by noncompartmental model using DAS 3.3.0 software.

| Cmax | MRT last | Vd/F | half-life | AUC (0 − ∞) (n = 6) | CL (clearance rate) (n = 6) | CL (clearance rate) (n = 6, listed as chlorogenic acid) | AUC (0 − t) (n = 6) | T max (time to Cmax) (n = 6) | SMILES |
| --- | --- | --- | --- | --- | --- | --- | --- | --- | --- |
| 242 ± 84.7 ng/mL | 5.33 ± 0.65 h | 916 ± 452 L/kg | 10.6 ± 6.21 h | 554.37 ± 166.14 μg/L∗h | 1049 ± 266.7 mL/min/kg | 1049 ± 266.6 mL/min/kg | – | – | O=C(/C=C/c1ccc(O)c(O)c1)O[C@@H]1C[C@](O)(C(=O)O)C[C@@H](O)[C@H]1O [Chlorogenic acid] |
| 1010 ± 369 ng/mL | 4.76 ± 1.57 h | 0.966 ± 0.359 L/kg | 4.59 ± 1.65 h | 5405.02 ± 416.99 μg/L∗h | 2.5 ± 0.17 mL/min/kg | – | 5281.36 ± 440.02 μg/L∗h | 1.66 h | C/C=C1/COC(=O)[C@H]2C(=O)N3CCc4c([nH]c5ccccc45)[C@@H]3C[C@@H]12 [Naucleactonin C] |
